Tested on: Dentine
Experiment: Bio-modification of human mid coronal dentine assessed as fold change in complex modulus at 0.2% w/v incubated for 1 hrs by dynamic mechanical analysis
Type: functional

## Oc1cc(O)c(C[C@H](O)[C@H](c2ccc(O)c(O)c2)c2c(O)cc(O)c3c2O[C@H](c2ccc(O)c(O)c2)[C@@H](O)C3)c(O)c1
  fold change (FC): 3.3

## Oc1cc(O)c(C[C@H](O)[C@H](c2ccc(O)c(O)c2)c2c(O)cc(O)c3c2O[C@@H](c2ccc(O)c(O)c2)[C@H](O)C3)c(O)c1
  fold change (FC): 3.3

## Oc1cc(O)c2c(c1)O[C@H]([C@H](c1ccc(O)c(O)c1)c1c(O)cc(O)c3c1O[C@H](c1ccc(O)c(O)c1)[C@@H](O)C3)C2
  fold change (FC): 5.2

## Oc1cc(O)c(C[C@H](O)[C@H](c2ccc(O)c(O)c2)c2c(O)cc(O)c3c2O[C@@H](c2ccc(O)c(O)c2)[C@@H](O)C3)c(O)c1
  fold change (FC): 3.3

## Oc1cc(O)c(C[C@@H]2Oc3c4c(cc(O)c3[C@H]2c2ccc(O)c(O)c2)O[C@H](c2ccc(O)c(O)c2)[C@@H](O)C4)c(O)c1
  fold change (FC): 4.2
